Source: US20230373972A1, “PIPERAZINE DERIVATIVE, PREPARATION METHOD THEREFOR AND USE THEREOF” (Zhejiang Hisun Pharmaceutical Co., Ltd., priority 2020, published 2023)

Legend:
[1] = Metabolic stability in dog liver microsomes; format: in vitro ADME
Method: The experiment was intended to study the metabolic stability of the compounds of the present invention in dog and mouse liver microsomes.
A test compound and the compound of Comparative Example 1 were incubated with dog and mouse liver microsomes (the Corning Company. USA) respectively, and a coenzyme NADPH was added to start the reaction. 135 μL of acetonitrile containing an internal standard (IS) was added to wells of a corresponding plate after 0, 5, 15, 30 and 45 minutes respectively to terminate the reaction. After protein precipitation, the solution was centrifuged at 5.594 rpm for 15 minutes, and a supernatant was taken. The supernatant was diluted with water by 1:1 (volume ratio) and then analyzed by a LC-MS/MS method. Ketanserin was used as an internal reference compound, and two copies of Ketanserin were incubated in parallel.
A peak area ratio of analyte/internal standard (Aanalyte/A1s) was obtained by an instrument, and a remaining percentage (% Control) was calculated by ratios of Aanalyte/A1s in a sample at a non-zero time point and a sample at a zero time point. Ln (% Control) was plotted and fitted linearly with the incubation time. A scavenging constant (k, min^−1) and a scavenging half-life (T1/2, min) of the tested compound were calculated by the following equation.

[2] = tested on: human plasma; experiment: In-vitro anticoagulation on human plasma (APTT kit, coagulation time); conditions: concentration of the compound when the coagulation time (APTT) was prolonged twice
[3] = Pharmacokinetics in cynomolgus macaque; format: in vivo; conditions: male, cynomolgus monkey, plasma, po, intragastric administration 15 mg/kg
Method: Taking a cynomolgus macaque as a tested animal, the cynomolgus macaque was administrated with the compound in Example 96 of the present invention by intragastric administration, and drug concentrations in plasma at different times were determined by a LC/MS/MS method to study pharmacokinetic characteristics of the compound of the present invention in the cynomolgus macaque.
Cynomolgus macaque, male, 4.6 kg to 5.7 kg, adult, purchased from Guangxi Fangcheng Gang Spring Biological Technology Development Corporation Ltd.
Preparation of drug administrated by intragastric administration: a proper amount of compound to be tested was added to a proper amount of DMAC: (30% Kolliphor HS 15): Saline=5%: 10%; 85% (v/v/v), and shaken in a vortex manner, so as to prepare a final solution with a concentration of 3 mg/mL.
Cynomolgus macaques were organized into one group, which was an intragastric administration group (3 cynomolgus macaques in single group).
Intragastric administration group: the drug was administrated by intragastric administration (according to a dosage of 15 mg/kg and a volume of 5 ml/kg) after fasting overnight, and food was taken 4 hours after administration.
Intragastric administration group: about 500 μL of blood was collected into an EDTA-K2 anticoagulant tube through a cephalic vein and a saphenous vein 0.25 hour, 0.5 hour, 1 hour, 2 hours, 4 hours, 8 hours and 24 hours after administration.
The blood sample was placed on wet ice first, and plasma was centrifugally separated within 15 minutes after sampling (centrifugation conditions: 2,000 g, 4° C., 5 minutes). The collected upper plasma was stored at −70° C. before analysis.
Contents of the compound to be tested in cynomolgus macaque plasma after intragastric administration were determined by LC-MS/MS.

half-life at 1 μM ([1]; dog liver microsomes 0.5 mg/mL, 1 μM compound, NADPH, read-out: Half-life period (T1/2 min) Dog): 15.3 h | Cmax ([3]; read-out: Blood concentration Cmax): 834 ± 482 ng/mL | AUC(0-t) ([3]; read-out: Curve area AUC0-t): 4210 ± 1240 ng·h/mL | half-life ([3]; read-out: Half-life period T1/2(h) (converted)): 3.71 ± 0.42 h
SMILES: COCC[C@@H](C(=O)Nc1ccc2nn(C)cc2c1)N1CC(=O)N(c2cc(Cl)ccc2-n2cc(Cl)nn2)CC1=O [Example 96, (S)-2-(4-(5-chloro-2-(4-chloro-1H-1,2,3-triazol-1-yl)phenyl)-2,5-dioxopiperazin-1-yl)-4-methoxy-N-(2-methyl-2H-indazol-5-yl)butanamide]
Half-life period and stability compared with Comparative Example 1 ([1]; dog liver microsomes, in words): longer half-life period and a higher stability | CT2 [2]: 5.3 µM
